Source: ChEMBL document CHEMBL3991601, “The target landscape of clinical kinase drugs” (Science, 2017)
Calls of active or inactive are those of the source.

How the values were obtained:
[1] = biological target: Serine/threonine-protein kinase B-raf (Homo sapiens, UniProt P15056)
[2] = biological target: Cyclin-dependent kinase 12 (Homo sapiens, UniProt Q9NYV4)
[3] = biological target: T1, ATP-dependent RNA helicase DDX42 (Homo sapiens, UniProt Q86XP3)
T1 sequence (Q86XP3 whole entry): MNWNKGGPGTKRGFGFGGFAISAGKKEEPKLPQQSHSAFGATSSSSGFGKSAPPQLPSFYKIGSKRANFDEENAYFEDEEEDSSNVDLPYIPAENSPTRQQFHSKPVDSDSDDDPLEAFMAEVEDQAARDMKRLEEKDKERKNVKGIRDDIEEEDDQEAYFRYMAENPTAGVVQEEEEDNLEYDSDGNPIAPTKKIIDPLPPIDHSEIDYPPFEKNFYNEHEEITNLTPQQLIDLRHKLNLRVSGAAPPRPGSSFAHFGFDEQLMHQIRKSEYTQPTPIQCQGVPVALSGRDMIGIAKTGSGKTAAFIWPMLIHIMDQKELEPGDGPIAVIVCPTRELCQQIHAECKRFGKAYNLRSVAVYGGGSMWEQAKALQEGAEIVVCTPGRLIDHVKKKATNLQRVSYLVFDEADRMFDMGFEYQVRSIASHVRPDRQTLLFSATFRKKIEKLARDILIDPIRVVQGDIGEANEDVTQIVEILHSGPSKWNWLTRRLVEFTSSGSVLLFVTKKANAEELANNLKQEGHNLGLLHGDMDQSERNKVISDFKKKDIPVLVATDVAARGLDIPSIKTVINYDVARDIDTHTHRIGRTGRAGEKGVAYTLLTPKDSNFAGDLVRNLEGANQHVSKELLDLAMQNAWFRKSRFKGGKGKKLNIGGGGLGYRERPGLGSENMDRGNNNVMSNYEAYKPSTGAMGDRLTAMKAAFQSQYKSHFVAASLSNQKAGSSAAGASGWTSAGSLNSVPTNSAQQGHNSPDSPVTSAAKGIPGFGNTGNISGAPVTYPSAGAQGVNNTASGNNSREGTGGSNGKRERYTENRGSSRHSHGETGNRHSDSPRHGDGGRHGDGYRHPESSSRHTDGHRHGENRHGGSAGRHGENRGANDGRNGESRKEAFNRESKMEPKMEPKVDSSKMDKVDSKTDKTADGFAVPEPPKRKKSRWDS

[4] = biological target: T2, Serine/threonine-protein kinase Nek3 (Homo sapiens, UniProt P51956)
T2 sequence (P51956 whole entry): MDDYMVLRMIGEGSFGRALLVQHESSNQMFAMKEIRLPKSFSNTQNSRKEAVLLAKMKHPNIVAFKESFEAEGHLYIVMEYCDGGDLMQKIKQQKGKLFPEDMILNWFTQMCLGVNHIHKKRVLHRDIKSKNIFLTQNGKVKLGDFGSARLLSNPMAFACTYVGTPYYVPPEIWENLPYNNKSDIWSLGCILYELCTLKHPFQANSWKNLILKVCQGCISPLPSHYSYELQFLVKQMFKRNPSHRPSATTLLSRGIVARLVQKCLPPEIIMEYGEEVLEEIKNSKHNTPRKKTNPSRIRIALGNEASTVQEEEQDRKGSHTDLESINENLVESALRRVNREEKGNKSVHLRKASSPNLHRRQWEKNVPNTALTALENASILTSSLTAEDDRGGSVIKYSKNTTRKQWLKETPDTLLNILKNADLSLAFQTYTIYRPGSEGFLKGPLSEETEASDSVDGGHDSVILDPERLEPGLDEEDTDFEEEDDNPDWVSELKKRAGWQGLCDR

[5] = biological target: T3, cGMP-dependent protein kinase 1 (Homo sapiens, UniProt Q13976)
T3 sequence (Q13976 whole entry): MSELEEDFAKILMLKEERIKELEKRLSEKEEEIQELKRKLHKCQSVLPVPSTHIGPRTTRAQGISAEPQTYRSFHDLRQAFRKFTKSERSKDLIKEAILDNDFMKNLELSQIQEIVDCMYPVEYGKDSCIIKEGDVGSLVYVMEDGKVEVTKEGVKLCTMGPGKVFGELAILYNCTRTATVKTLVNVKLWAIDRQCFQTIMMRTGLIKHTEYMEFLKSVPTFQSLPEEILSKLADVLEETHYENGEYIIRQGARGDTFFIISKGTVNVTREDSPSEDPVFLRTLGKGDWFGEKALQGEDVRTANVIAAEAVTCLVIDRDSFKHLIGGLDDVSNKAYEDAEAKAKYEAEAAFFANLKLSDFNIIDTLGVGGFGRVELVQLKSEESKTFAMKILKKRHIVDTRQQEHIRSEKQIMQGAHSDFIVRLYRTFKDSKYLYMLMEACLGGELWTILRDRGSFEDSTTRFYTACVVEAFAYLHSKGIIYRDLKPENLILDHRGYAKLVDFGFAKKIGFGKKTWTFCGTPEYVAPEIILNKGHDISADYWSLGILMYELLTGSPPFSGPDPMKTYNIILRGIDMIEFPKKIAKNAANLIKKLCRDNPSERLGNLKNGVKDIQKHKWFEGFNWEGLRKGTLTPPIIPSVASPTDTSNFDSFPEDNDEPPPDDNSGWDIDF

[6] = biological target: T4, Glycogen phosphorylase, brain form (Homo sapiens, UniProt P11216)
T4 sequence (P11216 whole entry): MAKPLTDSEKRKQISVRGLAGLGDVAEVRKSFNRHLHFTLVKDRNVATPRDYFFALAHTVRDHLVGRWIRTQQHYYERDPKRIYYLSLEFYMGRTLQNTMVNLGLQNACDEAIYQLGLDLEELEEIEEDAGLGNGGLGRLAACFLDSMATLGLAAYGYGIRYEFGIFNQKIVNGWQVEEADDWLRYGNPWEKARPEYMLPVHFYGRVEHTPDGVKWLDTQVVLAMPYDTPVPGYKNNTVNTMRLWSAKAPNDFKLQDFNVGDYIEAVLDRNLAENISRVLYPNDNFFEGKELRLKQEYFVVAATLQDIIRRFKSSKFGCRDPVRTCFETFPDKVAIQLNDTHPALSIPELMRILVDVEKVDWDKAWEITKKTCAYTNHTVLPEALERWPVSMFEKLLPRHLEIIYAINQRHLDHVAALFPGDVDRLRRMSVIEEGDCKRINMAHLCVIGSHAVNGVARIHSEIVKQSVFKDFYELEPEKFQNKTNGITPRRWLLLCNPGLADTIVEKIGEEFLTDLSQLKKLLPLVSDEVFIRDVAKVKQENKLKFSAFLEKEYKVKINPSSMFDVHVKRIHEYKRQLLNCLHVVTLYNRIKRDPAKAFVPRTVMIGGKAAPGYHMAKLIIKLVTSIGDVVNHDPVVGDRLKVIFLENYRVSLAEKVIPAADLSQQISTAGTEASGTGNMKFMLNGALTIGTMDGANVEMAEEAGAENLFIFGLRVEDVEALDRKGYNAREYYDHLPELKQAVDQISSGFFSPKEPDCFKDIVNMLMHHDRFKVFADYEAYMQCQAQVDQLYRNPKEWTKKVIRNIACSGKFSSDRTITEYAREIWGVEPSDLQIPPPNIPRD
Further: in the data inactive means no Kd found up to 30 µM.

Serine/threonine-protein kinase B-raf, sequence (P15056 whole entry): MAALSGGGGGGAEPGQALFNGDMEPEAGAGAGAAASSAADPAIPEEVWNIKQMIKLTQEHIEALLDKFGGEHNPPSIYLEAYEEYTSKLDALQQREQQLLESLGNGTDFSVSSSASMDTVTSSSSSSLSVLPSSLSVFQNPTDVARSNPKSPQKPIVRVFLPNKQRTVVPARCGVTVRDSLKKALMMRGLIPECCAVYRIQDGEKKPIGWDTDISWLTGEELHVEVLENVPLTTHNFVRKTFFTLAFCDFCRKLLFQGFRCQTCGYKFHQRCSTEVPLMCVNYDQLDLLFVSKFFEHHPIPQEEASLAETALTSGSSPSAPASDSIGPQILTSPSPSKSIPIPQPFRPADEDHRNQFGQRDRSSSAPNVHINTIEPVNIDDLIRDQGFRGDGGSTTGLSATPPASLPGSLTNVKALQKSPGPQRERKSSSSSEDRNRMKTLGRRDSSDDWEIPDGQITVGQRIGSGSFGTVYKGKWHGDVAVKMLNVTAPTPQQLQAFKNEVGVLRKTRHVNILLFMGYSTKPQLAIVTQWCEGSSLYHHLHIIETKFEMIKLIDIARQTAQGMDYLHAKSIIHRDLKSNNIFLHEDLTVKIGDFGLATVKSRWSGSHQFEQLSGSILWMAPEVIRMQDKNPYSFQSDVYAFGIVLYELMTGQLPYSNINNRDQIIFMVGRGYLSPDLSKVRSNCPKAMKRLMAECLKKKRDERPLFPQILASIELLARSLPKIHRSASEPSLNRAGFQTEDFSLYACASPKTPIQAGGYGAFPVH
Cyclin-dependent kinase 12, sequence (Q9NYV4 whole entry): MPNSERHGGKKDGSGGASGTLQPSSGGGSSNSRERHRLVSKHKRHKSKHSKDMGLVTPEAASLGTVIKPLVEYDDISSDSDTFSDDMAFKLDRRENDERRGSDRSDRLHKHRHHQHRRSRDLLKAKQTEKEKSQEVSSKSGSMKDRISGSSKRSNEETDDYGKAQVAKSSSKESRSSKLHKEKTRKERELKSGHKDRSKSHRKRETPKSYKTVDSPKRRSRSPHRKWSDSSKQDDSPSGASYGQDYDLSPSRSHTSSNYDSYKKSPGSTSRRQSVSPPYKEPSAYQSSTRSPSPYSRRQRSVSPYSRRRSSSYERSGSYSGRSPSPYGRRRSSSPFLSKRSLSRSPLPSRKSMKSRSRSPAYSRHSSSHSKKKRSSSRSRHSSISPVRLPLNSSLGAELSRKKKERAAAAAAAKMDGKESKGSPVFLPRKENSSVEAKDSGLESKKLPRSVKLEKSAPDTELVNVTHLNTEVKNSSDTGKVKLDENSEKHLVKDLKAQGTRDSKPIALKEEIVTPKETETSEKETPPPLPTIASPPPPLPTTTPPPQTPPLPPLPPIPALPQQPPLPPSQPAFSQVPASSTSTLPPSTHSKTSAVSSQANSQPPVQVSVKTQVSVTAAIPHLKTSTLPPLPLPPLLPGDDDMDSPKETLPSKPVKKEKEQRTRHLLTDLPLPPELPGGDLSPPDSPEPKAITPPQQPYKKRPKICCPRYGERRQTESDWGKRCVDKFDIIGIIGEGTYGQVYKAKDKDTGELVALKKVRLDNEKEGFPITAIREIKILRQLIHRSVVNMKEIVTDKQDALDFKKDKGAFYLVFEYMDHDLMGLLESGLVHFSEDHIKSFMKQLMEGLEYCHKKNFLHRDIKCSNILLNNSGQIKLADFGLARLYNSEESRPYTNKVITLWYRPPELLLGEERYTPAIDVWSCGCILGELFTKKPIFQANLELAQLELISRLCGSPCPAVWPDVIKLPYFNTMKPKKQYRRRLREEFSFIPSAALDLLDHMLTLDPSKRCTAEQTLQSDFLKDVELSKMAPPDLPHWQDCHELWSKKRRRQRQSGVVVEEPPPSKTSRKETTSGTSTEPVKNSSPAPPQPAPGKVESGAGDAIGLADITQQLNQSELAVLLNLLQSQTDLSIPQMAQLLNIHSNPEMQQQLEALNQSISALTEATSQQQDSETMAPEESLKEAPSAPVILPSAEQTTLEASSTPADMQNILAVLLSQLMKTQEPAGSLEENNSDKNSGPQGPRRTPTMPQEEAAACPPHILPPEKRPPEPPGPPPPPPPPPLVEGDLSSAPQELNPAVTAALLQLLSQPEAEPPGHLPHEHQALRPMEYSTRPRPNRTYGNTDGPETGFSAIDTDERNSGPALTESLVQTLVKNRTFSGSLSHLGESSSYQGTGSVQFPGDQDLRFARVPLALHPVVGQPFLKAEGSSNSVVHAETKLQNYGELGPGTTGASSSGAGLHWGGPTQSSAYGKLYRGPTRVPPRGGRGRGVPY

Kd [1]	Kd [2]	Kd [3]	Kd [4]	Kd [5]	Kd [6]	Structure (SMILES)
> 30 µM (inactive)	> 30 µM (inactive)	> 30 µM (inactive)	> 30 µM (inactive)	> 30 µM (inactive)	> 30 µM (inactive)	Cn1c(=O)n(-c2ccc(C(C)(C)C#N)cc2)c2c3cc(-c4cnc5ccccc5c4)ccc3ncc21 [DACTOLISIB]
> 30 µM (inactive)	> 30 µM (inactive)	> 30 µM (inactive)	> 30 µM (inactive)	> 30 µM (inactive)	> 30 µM (inactive)	CCN1CCN(Cc2ccc(Nc3ncc(F)c(-c4cc(F)c5nc(C)n(C(C)C)c5c4)n3)nc2)CC1 [ABEMACICLIB]
> 30 µM (inactive)	> 30 µM (inactive)	> 30 µM (inactive)	> 30 µM (inactive)	> 30 µM (inactive)	> 30 µM (inactive)	FC(F)(F)c1ccc(CNc2ccc(Cc3c[nH]c4ncc(Cl)cc34)cn2)cn1 [PEXIDARTINIB]
> 30 µM (inactive)	> 30 µM (inactive)	> 30 µM (inactive)	> 30 µM (inactive)	> 30 µM (inactive)	> 30 µM (inactive)	Cn1c(=O)c(F)c(Nc2ccc(I)cc2F)c2c(=O)n(C[C@@H](O)CO)cnc21 [TAK-733]
> 30 µM (inactive)	> 30 µM (inactive)	> 30 µM (inactive)	> 30 µM (inactive)	> 30 µM (inactive)	> 30 µM (inactive)	COc1cccc2cc(-c3nc([C@H]4CC[C@H](C(=O)O)CC4)n4ncnc(N)c34)[nH]c12 [OSI-027]
> 30 µM (inactive)	> 30 µM (inactive)	> 30 µM (inactive)	> 30 µM (inactive)	> 30 µM (inactive)	> 30 µM (inactive)	C[C@@H]1COC(Nc2ccc3ncnc(Nc4ccc(OCc5nccs5)c(Cl)c4)c3c2)=N1 [VARLITINIB]
> 30 µM (inactive)	> 30 µM (inactive)	> 30 µM (inactive)	> 30 µM (inactive)	> 30 µM (inactive)	> 30 µM (inactive)	COc1cc2nccc(Oc3ccc(NC(=O)C4(C(=O)Nc5ccc(F)cc5)CC4)cc3)c2cc1OC [CABOZANTINIB]
> 30 µM (inactive)	> 30 µM (inactive)	> 30 µM (inactive)	> 30 µM (inactive)	> 30 µM (inactive)	> 30 µM (inactive)	CNC(=O)c1cccc(-c2ccc3c(N4CCOC[C@@H]4C)nc(N4CCOC[C@@H]4C)nc3n2)c1 [VISTUSERTIB]

More lines, now with the values behind:

Structure (SMILES)	Kd [1]	Kd [2]	Kd [3]	Kd [4]	Kd [5]	Kd [6]
COc1cccc(Nc2ncnn3ccc(CN4CC[C@@H](N)[C@H](O)C4)c23)c1 [BMS-690514]	> 30 µM (inactive)	> 30 µM (inactive)	> 30 µM (inactive)	> 30 µM (inactive)	> 30 µM (inactive)	> 30 µM (inactive)
CC1(COc2ccc3c(c2)ncn3-c2ccc3cccc(N4CCC(N)CC4)c3n2)COC1 [CRENOLANIB]	> 30 µM (inactive)	> 30 µM (inactive)	> 30 µM (inactive)	> 30 µM (inactive)	> 30 µM (inactive)	> 30 µM (inactive)
C=CCn1c(=O)c2cnc(Nc3ccc(N4CCN(C)CC4)cc3)nc2n1-c1cccc(C(C)(C)O)n1 [ADAVOSERTIB]	> 30 µM (inactive)	> 30 µM (inactive)	> 30 µM (inactive)	0.837 µM (active)	> 30 µM (inactive)	> 30 µM (inactive)
CNC(=O)c1ccc(Nc2ncc(C(F)(F)F)c(NCc3nccnc3N(C)S(C)(=O)=O)n2)cc1 [DEFACTINIB]	> 30 µM (inactive)	0.73 µM (active)	> 30 µM (inactive)	> 30 µM (inactive)	> 30 µM (inactive)	> 30 µM (inactive)
O=c1[nH]c([C@@H]2CCCN2)nc2c1oc1ccc(Cl)cc12	> 30 µM (inactive)	> 30 µM (inactive)	> 30 µM (inactive)	> 30 µM (inactive)	> 30 µM (inactive)	> 30 µM (inactive)
N#CCNC(=O)c1ccc(-c2ccnc(Nc3ccc(N4CCOCC4)cc3)n2)cc1 [MOMELOTINIB]	> 30 µM (inactive)	> 30 µM (inactive)	> 30 µM (inactive)	0.286 µM (active)	> 30 µM (inactive)	> 30 µM (inactive)
COCCN1CCN(Cc2ccc(-c3n[nH]c4c3C(=O)c3c(NC(=O)NN5CCOCC5)cccc3-4)cc2)CC1 [RGB-286638]	> 30 µM (inactive)	0.947 µM (active)	> 30 µM (inactive)	> 30 µM (inactive)	> 30 µM (inactive)	> 30 µM (inactive)
CCc1cc2c(cc1N1CCC(N3CCOCC3)CC1)C(C)(C)c1[nH]c3cc(C#N)ccc3c1C2=O [ALECTINIB]	> 30 µM (inactive)	> 30 µM (inactive)	> 30 µM (inactive)	> 30 µM (inactive)	> 30 µM (inactive)	> 30 µM (inactive)
S=C(NCc1ccc2c(c1)OCO2)N1CCN(c2ncnc3c2oc2ccccc23)CC1 [AMUVATINIB]	> 30 µM (inactive)	> 30 µM (inactive)	> 30 µM (inactive)	> 30 µM (inactive)	> 30 µM (inactive)	> 30 µM (inactive)
COc1ccc(-c2ccc3ncc4c(c3c2)n(-c2ccc(N3CCNCC3)c(C(F)(F)F)c2)c(=O)n4C)cn1 [BGT-226 FREE BASE]	> 30 µM (inactive)	> 30 µM (inactive)	> 30 µM (inactive)	> 30 µM (inactive)	> 30 µM (inactive)	> 30 µM (inactive)
